Results taken from US9751850B2, “TRPA1 antagonists” (AbbVie Inc., priority 2008, dated 2017).

Molecular target: Human TRPA1 (Homo sapiens (Human), UniProt O75762)
Test: FLIPR based intracellular Ca2+ assay and membrane potential assay, AITC-activated TRPA1
Type: cell-based
Details: hTRPA1 transiently expressed in HEK293-F cells, AITC as agonist
Protocol: Molecular biology and transient expression were performed as described in Chen, J. et al., Journal of Biomolecular Screening 2007, 12, 61-69. Briefly, TRPA1 full length cDNA was amplified from human dorsal root ganglia total RNA (BD Bioscience Clontech, Palo Alto, Calif., USA) and was cloned into pcDNA3.1/V5-His Topo vector (Invitrogen, Carlsbad, Calif.). Large scale transient transfection was performed using the FreeStyle™ 293 Expression System as recommended by the manufacturer (Invitrogen). HEK293-F cells were grown in suspension in flasks (cell volume 30 ml, to 1 liter) or in a Wave Bioreactor (Wave Biotech, Somerset, N.J. (6 liters). To support high density, suspension culture and transfection, cells were cultured in Free Style 293 media, an optimized, serum free formulation. 293fectin™ (Invitrogen) was used as transfection reagent. In a transfection of 3×10^7 cells (30 mL volume), 30 μg of plasmid DNA and 40 μL 293 fectin were used. For a larger volume transfection, each reagent was scaled up proportionally. Two days post-transfection, cells were harvested by centrifugation (1000×g, 5 minutes) and resuspended to a density of 1.5×10^7 cells/mL in freezing medium (Freestyle media/10% serum/10% DMSO). Cells were transferred into cryovials in 2 mL aliquots, and these vials were placed in Nalgene Mr. Frosty slow-freeze devices (Sigma-Aldrich, St. Louis, Mo.) at −80° C. As needed, vials were removed from −80° C. and quickly thawed in a 37° C. water bath. Cells were aseptically transferred into conical tubes containing Freestyle media (10 mL/vial). After centrifugation at 1,000×g for 3-5 minutes, medium was removed by aspiration and cells were resuspended in Freestyle medium at desired densities (typically 1×10^6 cells/mL). Re-suspended cells were seeded into black-walled clear-bottom 96-well Biocoat™ poly-D-lysine assay plated (BD Biosciences, Bedford, Mass.) (10^5 cells/well) and incubated overnight at 37° C. under a humidified 5% CO2 atmosphere.
Ca^2+ influx was measured using a FLIPR calcium assay kit (R8033; Molecular Devices, Sunnyvale, Calif.). The Ca^2+ indicator dye was dissolved in Hanks' balanced salt solution supplemented with 20 mM HEPES buffer (HBSS/HEPES) according to the manufacturer instructions. Prior to start of the assay, the medium was removed by aspiration, and cells were loaded with 100 μL Ca^2+ dye for 2 to 3 hours at room temperature. AITC (allyl isothiocyanate) was used to activate and open the channels. (4×) solutions of the test compounds were prepared in HBSS/HEPES, and 50 μL were added to the cells at a delivery rate of 10 μL/sec. Changes in fluorescene were measured over time in a fluorometric imaging plate reader (FLIPR), Molecular Devices). Two additions were made over the course of an experimental run. For agonist experiments, assay buffer was added at the 10 s time point, followed by addition of agonist at the 3 minute 10 sec time point. For antagonist experiments, the antagonist was added at the 10 sec time point, followed by addition of the agonist 3 minutes later. Final assay volume for both the agonist and antagonist experiments was 200 μL. Total length of an experimental run was 6.5 minutes.
Data was analyzed with GraphPad Prism® software (GraphPad Software, San Diego, Calif.), using a four-parameter logistic Hill equation to curve-fit concentration-effect data and derive EC50 or IC50 values. Numerical values are reported as mean±SEM (n=number of experiments). SEM is calculated by dividing the standard deviation by the square root of the sample size […].
Changes in membrane potential were measured in hTRPA1-expressing LSTT cells using a FLIJPR membrane potential assay kit (R8034, Molecular Devices). The procedure for thawing and plating the LSTT cells was identical to the Ca^2+ influx assay (see above). […]

Human TRPA1, sequence (O75762 whole entry): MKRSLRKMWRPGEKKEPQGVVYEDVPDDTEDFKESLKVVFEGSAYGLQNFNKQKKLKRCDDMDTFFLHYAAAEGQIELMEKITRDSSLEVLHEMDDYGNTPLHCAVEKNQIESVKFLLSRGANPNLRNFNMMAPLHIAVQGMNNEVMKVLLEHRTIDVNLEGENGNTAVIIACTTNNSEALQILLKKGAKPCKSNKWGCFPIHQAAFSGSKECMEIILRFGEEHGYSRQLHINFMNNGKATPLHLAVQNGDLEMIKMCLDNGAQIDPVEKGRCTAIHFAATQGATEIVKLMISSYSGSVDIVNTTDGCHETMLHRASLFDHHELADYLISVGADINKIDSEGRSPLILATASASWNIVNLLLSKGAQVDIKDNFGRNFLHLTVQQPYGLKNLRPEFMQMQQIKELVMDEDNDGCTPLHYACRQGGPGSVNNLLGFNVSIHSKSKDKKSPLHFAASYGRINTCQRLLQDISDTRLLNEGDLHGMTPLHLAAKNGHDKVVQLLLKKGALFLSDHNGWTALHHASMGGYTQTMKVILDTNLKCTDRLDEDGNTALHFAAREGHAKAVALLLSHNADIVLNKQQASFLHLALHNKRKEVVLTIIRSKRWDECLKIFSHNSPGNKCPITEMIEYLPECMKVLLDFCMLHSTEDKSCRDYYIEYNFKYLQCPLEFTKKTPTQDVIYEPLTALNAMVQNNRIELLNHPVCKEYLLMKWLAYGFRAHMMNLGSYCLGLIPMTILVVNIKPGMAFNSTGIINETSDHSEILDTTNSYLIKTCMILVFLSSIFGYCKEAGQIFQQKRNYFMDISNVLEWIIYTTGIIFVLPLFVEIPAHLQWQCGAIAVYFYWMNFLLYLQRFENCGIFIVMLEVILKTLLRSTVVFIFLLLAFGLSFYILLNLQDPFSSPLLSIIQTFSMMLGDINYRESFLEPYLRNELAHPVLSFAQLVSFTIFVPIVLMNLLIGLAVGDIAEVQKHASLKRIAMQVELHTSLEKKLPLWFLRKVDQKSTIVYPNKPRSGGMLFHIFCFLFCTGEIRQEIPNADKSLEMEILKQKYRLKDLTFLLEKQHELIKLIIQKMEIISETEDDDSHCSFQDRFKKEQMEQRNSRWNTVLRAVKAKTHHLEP

| Compound | IC50 [µM] |
| --- | --- |
| CCC(=N\O)/C(C)=C/c1ccc(F)nc1 [Example 1, (1E,3E)-1-(6-fluoropyridin-3-yl)-2-methylpent-1-en-3-one oxime] | 1.25 |
| CCC(=N\O)/C(C)=C/c1cccs1 [Example 2, (1E,3E)-2-methyl-1-thien-2-ylpent-1-en-3-one oxime] | 11 |
| CCC(=N\O)/C(C)=C/c1ccc(OC)nc1 [Example 3, (1E,3E)-1-(6-methoxypyridin-3-yl)-2-methylpent-1-en-3-one oxime] | 23.4 |
| CCC(=N\O)/C(C)=C/c1ccsc1 [Example 4, (1E,3E)-2-methyl-1-thien-3-ylpent-1-en-3-one oxime] | 1.32 |
| CCC(=N\O)/C(C)=C/c1cccnc1 [Example 5, (1E,3E)-2-methyl-1-pyridin-3-ylpent-1-en-3-one oxime] | 17 |
| CCC(=N\O)/C(C)=C/c1ccncc1 [Example 6, (1E,3E)-2-methyl-1-pyridin-4-ylpent-1-en-3-one oxime] | 8.61 |
| CCC(=N\O)/C(C)=C/c1ccc(C)nc1 [Example 7, (1E,3E)-2-methyl-1-(6-methylpyridin-3-yl)pent-1-en-3-one oxime] | > 100 |
| CCC(=N\O)/C(C)=C/c1cnc2ccccc2c1 [Example 8, (1E,3E)-2-methyl-1-quinolin-3-ylpent-1-en-3-one oxime] | > 100 |
| CCC(=N\O)/C(C)=C/c1cnccc1C [Example 9, (1E,3E)-2-methyl-1-(4-methylpyridin-3-yl)pent-1-en-3-one oxime] | > 100 |
| CCC(=N\O)/C(C)=C/c1ccc(C(F)(F)F)nc1 [Example 10, (1E,3E)-2-methyl-1-[6-(trifluoromethyl)pyridin-3-yl]pent-1-en-3-one oxime] | > 100 |
| CCC(=N\O)/C(C)=C/c1cncc2ccccc12 [Example 11, (1E,3E)-1-(isoquinolin-4-yl)-2-methylpent-1-en-3-one oxime] | > 100 |
